Laboratory results from patent publication US20230137836A1, “NOVEL PROLYLFK506 DERIVATIVES HAVING NEURITE GROWTH AND SYNAPSE FORMATION ACTIVITIES AND USES THEREOF” (Seoul National University R&DB Foundation, priority 2020, published 2023).
Converted amounts (≈) assume the structure as drawn.

Key:
[1] = system: Salmonella typhimurium TA98; assay: Ames test (reverse mutation), histidine auxotroph strain; settings: 4 μg, 16 μg, 64 μg per plate
Procedure: (§1) To examine safety of the four kinds of novel compounds, an MTT assay for a cytotoxicity test, an Ames test for rapid evaluation of genotoxicity, and an hERG assay for evaluation of potential effects on cardiac repolarization were carried out. Methods generally used were conducted for the examination.
(§2) In detail, in the MTT assay, 80 to 800 times higher concentrations (100 nM to 1,000 nM) than the […] (1 ng/mL=1.24 nM) were determined as test concentrations of the four kinds of novel compounds. and the drug cytotoxicity was measured in mammalian normal cells (HEK293 T Cell). In the Ames test, the four kinds of novel compounds were treated at a concentration of 4 μg, 16 μg, 64 μg per plate, respectively, and the four kinds of novel compounds were evaluated by examining whether reverse mutation was induced a histidine auxotroph strain (Salmonella typhimurium TA98) and a tryptophan auxotroph strain (Escherichia coli WP2 uvrA). In the hERG assay, 0 μM, 2 μM, 8 μM, and 32 μM of each of the four kinds of novel compounds were treated to two or more numbers of cells. One CHO hERG cell was perfused with a normal tyrode solution. After confirming that the hERG channel current was recorded consistently for 3 to 4 sweeps, an excipient control group and the groups, each treated with one of the four kinds of novel compounds, were perfused for about 1 minute to 2 minutes or longer, and the magnitude of the hERG channel current was allowed to constantly record, and the magnitude of the relative current (pA or nA) and the suppression rate (%) were measured.

[2] = system: nigrostriatal dopaminergic pathway; assay: MPTP-induced Parkinson's disease animal model, TH immunohistochemistry; assay type: in vivo, mouse; settings: cannula injection into brain for 3 days, 5 mg/mL, MPTP i.p. on day 2, measured day 4, FIG. 28A
[3] = system: CD4+ T cells; assay: in vitro T-cell activation assay (CTV retention, flow cytometry); assay type: cell-based, mouse
Description: The reduced level of the immunosuppressive activity of the four kinds of novel compounds was examined using a common in vitro T-cell activation assay (J. Immunol. 143:718-726, 1989). […] When CD4+ T cells are stained with Cell Trace™ Violet (CTV), CTV retention of each cell decreases, as cells divide and T cells proliferate according to the immune response, and thus immunosuppressive activity was examined using the CTV retention as an index.
Single cells were isolated from the spleen of 6- to 8-week-old B6J laboratory mouse, and CD4+ T cells were isolated using MagniSort® Mouse CD4 T cell Enrichment Kit (eBioscience). CD4+ T cells were stained with Cell Trace™ Violet (CTV) Cell Proliferation Kit (Molecular Probes) and FK506 or each of the four kinds of novel compounds was added at a concentration of 0.01 ng/mL, 0.1 ng/mL, 1 ng/mL, 10 ng/mL, 100 ng/mL, 1000 ng/mL, followed by incubation for 72 hours. For activation of T cells. Dynabeads® Mouse T-Activator CD3/CD28 (Gibco) was used. As a control group, non-activated T cells were used. After incubation, CTV intensity was analyzed by flow cytometry.

[4] = system: Escherichia coli WP2 uvrA; assay: Ames test (reverse mutation), tryptophan auxotroph strain; settings: 4 μg, 16 μg, 64 μg per plate
Procedure: as §1, §2

[5] = system: primary cultured murine hippocampal neurons; assay: neurite outgrowth in primary cultured hippocampal neurons; assay type: cell-based; settings: treatment concentration 1 ng/mL, neurite lengths, FIG. 26
Procedure: The neuronal growth-promoting ability of the four kinds of novel compounds was examined using primary cultured murine hippocampal neurons according to a method reported by Jing Sun et al. (J. Neuroinflam. 15:180, 2018). […] The neurite lengths were measured on photographic prints according to a previously reported method (J. Pharmacol. Exp. Ther. 302:1278-1285, 2002).

[6] = molecular target: T1, hERG channel (Homo sapiens, UniProt Q12809); assay: hERG assay in CHO hERG cells; assay type: cell-based; settings: 0 μM, 2 μM, 8 μM, and 32 μM
T1 construct: expressed in transfected cells; host or cells: CHO hERG cells
T1 sequence (Q12809 whole entry): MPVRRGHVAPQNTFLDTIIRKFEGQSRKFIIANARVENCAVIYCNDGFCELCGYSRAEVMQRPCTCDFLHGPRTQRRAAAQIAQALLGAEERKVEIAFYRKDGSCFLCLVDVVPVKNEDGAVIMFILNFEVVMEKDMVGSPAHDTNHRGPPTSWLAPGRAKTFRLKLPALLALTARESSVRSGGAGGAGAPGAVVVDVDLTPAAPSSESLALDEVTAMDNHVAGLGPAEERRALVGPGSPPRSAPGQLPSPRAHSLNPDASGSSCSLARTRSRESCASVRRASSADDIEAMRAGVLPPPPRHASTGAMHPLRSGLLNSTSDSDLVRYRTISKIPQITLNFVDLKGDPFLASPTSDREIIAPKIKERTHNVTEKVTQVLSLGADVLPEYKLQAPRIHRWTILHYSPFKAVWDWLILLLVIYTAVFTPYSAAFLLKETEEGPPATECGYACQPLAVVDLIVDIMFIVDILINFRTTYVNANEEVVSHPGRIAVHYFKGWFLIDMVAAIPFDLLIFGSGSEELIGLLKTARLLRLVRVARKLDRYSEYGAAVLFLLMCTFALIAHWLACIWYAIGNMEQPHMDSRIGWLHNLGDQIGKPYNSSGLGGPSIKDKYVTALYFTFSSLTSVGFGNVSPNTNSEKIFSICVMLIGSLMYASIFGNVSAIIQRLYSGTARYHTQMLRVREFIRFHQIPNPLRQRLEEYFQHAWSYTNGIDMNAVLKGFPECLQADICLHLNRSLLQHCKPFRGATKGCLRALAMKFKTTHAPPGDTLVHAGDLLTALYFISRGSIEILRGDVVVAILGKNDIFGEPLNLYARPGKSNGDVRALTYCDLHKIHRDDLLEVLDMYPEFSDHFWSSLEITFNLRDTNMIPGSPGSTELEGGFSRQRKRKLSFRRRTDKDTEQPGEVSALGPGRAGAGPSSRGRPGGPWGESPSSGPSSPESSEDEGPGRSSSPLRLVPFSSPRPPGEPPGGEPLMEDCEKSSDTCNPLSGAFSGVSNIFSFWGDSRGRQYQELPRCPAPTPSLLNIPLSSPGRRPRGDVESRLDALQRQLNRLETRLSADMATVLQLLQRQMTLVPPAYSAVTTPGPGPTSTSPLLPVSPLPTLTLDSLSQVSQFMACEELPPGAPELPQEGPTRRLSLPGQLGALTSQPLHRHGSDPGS
Description: Further, in still another specific embodiment of the present invention, safety was confirmed in a 3-(4,5-dimethylthiazol-2-yl)-2,5-diphenyltetrazolium bromide (MTT) assay (FIG. 29) for cytotoxicity tests of the four kinds of novel compounds, an Ames test for rapid evaluation of genotoxicity, a human eag-related gene (hERG) assay for evaluation of potential effects on cardiac repolarization.
as §1, §2

[7] = system: HEK293 T Cell; assay: MTT assay for cytotoxicity; assay type: cell-based; settings: 100 nM to 1,000 nM, FIG. 29
Procedure: as §1, §2

[8] = system: primary cultured murine hippocampal neurons; assay: functional synaptogenic activity, patch-clamp recordings of excitatory synaptic currents; assay type: cell-based; settings: treatment concentration 1 ng/mL, days 10-14 after primary culture
Procedure: The functional synaptogenic activity of the four kinds of novel compounds was examined using primary cultured murine hippocampal neurons according to a method reported by D. Park. et al. (Sci. Rep. 7:7260, 2017). In detail, hippocampal neurons on days 10-14 after primary culture while being exposed to FK506 or each of the four kinds of novel compounds (treatment concentration: 1 ng/mL) was subjected to patch-clamp recordings to measure frequency of excitatory synaptic currents. The frequency of excitatory synaptic currents is used as an index for changes in the number of synapses.

Row | Compound | reverse mutation induction (Ames test) [1] | recovery in the density of neuron fibers [2] | Immunosuppression IC50 ([3]; activated mouse CD4+ T cells (CD3/CD28), 72 hours incubation, CTV intensity by flow cytometry) [µg/mL] | reverse mutation induction (Ames test) [4] | neurite outgrowth effect [5] | risk of cardiac repolarization (hERG channel current) [6] | cytotoxicity (MTT) [7] | spontaneous excitatory synaptic currents (sEPSCs), frequency [8] | immunosuppressive activity as compared with FK506 ([3]; T cell proliferation, CTV intensity, Table 7 and FIG. 25) | IC50 ([3]; activated mouse CD4+ T cells (CD3/CD28), 72 hours incubation, CTV intensity by flow cytometry, read-out: Immunosuppression IC50) [µg/mL]
1 | 9-deoxo-prolyl FK520 | without inducing reverse mutations | superior recovery in the density of neuron fibers, as compared to those treated with FK506 | 3.2888 | without inducing reverse mutations | superior neurite outgrowth effect, as compared with FK506 | without risk of cardiac repolarization |  |  |  | 
2 | CCC[C@@H]1/C=C(\C)C[C@H](C)C[C@H](OC)[C@H]2O[C@@](O)(CC(=O)N3CCC[C@H]3C(=O)O[C@H](/C(C)=C/[C@@H]3CC[C@@H](O)[C@H](O)C3)[C@H](C)[C@@H](O)CC1=O)[C@H](C)C[C@@H]2OC [9-deoxo-31-O-demethyl-36,37-dihydro-prolyl FK506] | without inducing reverse mutations | superior recovery in the density of neuron fibers, as compared to those treated with FK506 |  | without inducing reverse mutations |  | without risk of cardiac repolarization | no cytotoxicity was observed | 2.63±0.27 |  | 
3 | CC[C@@H]1/C=C(\C)C[C@H](C)C[C@H](OC)[C@H]2O[C@@](O)(CC(=O)N3CCC[C@H]3C(=O)O[C@H](/C(C)=C/[C@@H]3CC[C@@H](O)[C@H](O)C3)[C@H](C)[C@@H](O)CC1=O)[C@H](C)C[C@@H]2OC [9-deoxo-31-O-demethyl-prolyl FK520] | without inducing reverse mutations | superior recovery in the density of neuron fibers, as compared to those treated with FK506 |  | without inducing reverse mutations |  | without risk of cardiac repolarization | no cytotoxicity was observed |  | lowest immunosuppressive activity | 7.09 (≈ 9.45 µM)
4 | CCC[C@@H]1/C=C(\C)C[C@H](C)C[C@H](OC)[C@H]2O[C@@](O)(CC(=O)N3CCC[C@H]3C(=O)O[C@H](/C(C)=C/[C@@H]3CC[C@@H](O)[C@H](OC)C3)[C@H](C)[C@@H](O)CC1=O)[C@H](C)C[C@@H]2OC [9-deoxo-36,37-dihydro-prolyl FK506] | without inducing reverse mutations | superior recovery in the density of neuron fibers, as compared to those treated with FK506 |  | without inducing reverse mutations |  | without risk of cardiac repolarization | no cytotoxicity was observed | 3.29±0.22 |  | 
5 | C=CC[C@@H]1/C=C(\C)C[C@H](C)C[C@H](OC)[C@H]2O[C@@](O)(C(=O)C(=O)N3CCCC[C@H]3C(=O)O[C@H](/C(C)=C/[C@@H]3CC[C@@H](O)[C@H](OC)C3)[C@H](C)[C@@H](O)CC1=O)[C@H](C)C[C@@H]2OC [FK506] |  |  |  |  |  |  |  | 2.61±0.18 |  | 
